According to paper PMC3608532, “Characterization of a Single-Chain Variable Fragment Recognizing a Linear Epitope of Aβ: A Biotechnical Tool for Studies on Alzheimer’s Disease?” (PLoS ONE, 2013):

Columns and labels:
[1] = test system: Aβ naturally secreted by 7PA2 cells; assay: Immunoprecipitation of cell culture derived Aβ; format: binding; conditions: scFv-IC16-NHS-Sepharose, Western blot with 4G8
Experimental: Purified scFv-IC16 was dialyzed against PBS and coupled to NHS-Sepharose (GE, Buckinghamshire, UK) according to the manufacturers recommendations. Conditioned medium (CM) was prepared from confluent wild type CHO cells or 7PA2 cells cultured in DMEM (Life Technologies, UK) in presence or absence of FCS. Aβ was immune-precipitated from cleared CM with scFv-IC16-NHS-Sepharose overnight at 4°C. After washing with PBS, captured proteins were separated by 10–20% tricine peptide PAGE (Biorad, Hercules, CA) and transferred onto a 0.2 µm nitrocellulose membrane at 400 mA for 2 h. The filter was boiled for 5 min in PBS [42] and blocked overnight at 4°C with 5% fat-free milk in PBS containing 0.05% Tween 20 (PBS-T). After washing in PBS-T, the membrane was probed with 1∶200 diluted monoclonal 4G8 (Signet, Dedhem, MA). Bound antibody was detected with horseradish peroxidase conjugated goat anti-mouse Ig (at 1∶25000) (Thermo Scientific, Bonn, Germany). Subsequently, the Amersham ECL Western Blotting Detection Reagent (GE, Buckinghamshire, UK) was applied for visualization.

Aβ(8-15) = assay: SPR binding kinetics to immobilized Aβ(8-15)
Experimental: (§1) Binding kinetics were determined by SPR using a Biacore™ X (GE Healthcare, UK). Synthetic Aβ peptides were dissolved in 10 mM NaAc, pH 4.0. The CM5 sensor chip surface (GE Healthcare, UK) was activated using N-ethyl-N′-3 […] carbodiimide (EDC) and N-hydroxysuccinimide (NHS) chemistry followed by 2-(2-pyridinyldithio)ethaneamine hydrochloride (PDEA), in order to introduce a reactive thiol group. Aβ was coupled via the C-terminal cysteine to the chip at a flow rate of 5 µl/min, and the remaining active groups were blocked by injecting cysteine. The immobilization procedure was performed according to manufacturer’s recommendation. All kinetic analyses were performed at a flow rate of 20 µl/min in PBS. Varying concentrations of scFv-IC16 (10 to 5000 nM) and IC16 (10 to 1000 nM) were injected. […] When required, the surface was regenerated by injecting 20 µl 50 mM glycine, pH 11.0. The data evaluation was performed using Biaevaluation Software 4.1.1. ScFv-IC16 data were fitted according to the Langmuir 1∶1 binding model, whereas IC16 data were fitted according to the bivalent binding model. Standard errors of equilibrium dissociation constants (KD) were calculated using standard errors of the corresponding association and dissociation rate constants.

[2] = test system: Aβ plaques in brain cryosections of Tg2576 mice; assay: Ex vivo staining of plaques in mouse brain slices; conditions: 9 or 12 months old Tg2576 mice and wildtype control, 20 µm sections; scFv-IC16 400 nM, 6E10 33 nM, 1-11-3 1:200; fluorescence microscopy
Experimental: Deep frozen horizontal brain cryosections (20 µm thickness) from 9 or 12 months old Tg2576 mice and the respective wildtype control were dried in ambient air for 15 min, and then fixed in ice-cold 4% (w/v) paraformaldehyde for 20 min. Incubation with 70% formic acid for 5 min was performed to enhance immunoreactivity. Sections were permeabilized with 1% Triton X-100 in TBS for 10 min, followed by blocking with Mouse on mouse (M.O.M.) Basic Kit (Vector Laboratories) in TBS-Triton (1%, v/v) for 30 min. Primary antibodies were diluted in 1% BSA/TBS-Triton (working concentration of ScFv: 400 nM, 6E10∶33 nM, 1-11-3 (Covance, USA) in 1∶200 dilution) and probed on the sections for 1 h, incubating at room temperature. […] For double staining, two secondary antibodies (goat anti mouse-Alexa488 and goat anti rabbit-Alexa-568 were mixed directly (working concentration of goat anti rabbit-Alexa568∶1.300). After 1 min of incubation with 0.5 µg/ml DAPI, the sections were coverslip-mounted with Aqua Poly/Mont (Polysciences Inc, Worrington, PA, USA). Sections were examined under a fluorescence microscope (Leica LMD6000 (Leica, Solms, Germany). Excitation Range: UV; blue; green. Excitation Filter: Bp 420/30; Bp 495/15; Bp 570/20) with camera (Leica DFC 310 FX). Images were processed with LAS software (Leica Application Suite, V.4.0.0) and ImageJ (1.45 s).

Aβ(3-8) = assay: SPR binding kinetics to immobilized Aβ(3-8)
Experimental: as §1

Aβ(2-8) = assay: SPR binding kinetics to immobilized Aβ(2-8)
Experimental: as §1

[3] = SPR Biacore X, CM5 chip, PBS, 25°C, global fit, scFv-IC16 Langmuir 1:1 model, IC16 bivalent model
[4] = SPR Biacore X, CM5 chip, PBS, 25°C, global fit, scFv-IC16 Langmuir 1:1 model, IC16 bivalent model, ± standard error, SEM

interaction with Aβ(8-15) (Aβ(8-15)): No interaction | Kd (Aβ(3-8); [3]): 5.25 µM | k off (Aβ(3-8); [4]): 43.9±0.3×10^−3 s^-1 | k on (Aβ(3-8); [4]): 8.36±0.5×10^3 M^-1 s^-1 | Kd (Aβ(3-8); SPR, A2 of Aβ truncated): > 5 µM | Kd (Aβ(2-8); [3]): 112 nM | k off (Aβ(2-8); [4]): 7.65±0.03×10^−3 s^-1 | k on (Aβ(2-8); [4]): 6.84±0.03×10^4 M^-1 s^-1 | Kd (Aβ(2-8); SPR, Langmuir 1:1 binding model): ~112 nM
Substance: scFv-IC16: single-chain variable fragment (VH-(Gly4Ser)3-VL, His6- and Myc-tag) derived from Aβ binding monoclonal antibody IC16, expressed in E. coli
immunoprecipitation of monomeric Aβ ([1]; 7PA2 conditioned medium containing FCS, overnight 4°C): efficiently precipitated | immunoprecipitation of lower oligomeric Aβ species ([1]; conditioned medium of 7PA2 cells cultured without FCS): efficiently precipitated | plaque staining in brain cryosections [2]: detect plaques specifically
